Measured values taken from ChEMBL document CHEMBL3627608, “Crystal structures of human RIP2 kinase catalytic domain complexed with ATP-competitive inhibitors: Foundations for understanding inhibitor selectivity” (Bioorg Med Chem, 2015).

Key:
[1] = biological target: Ephrin type-A receptor 7 (Homo sapiens) (UniProt Q15375); assay: Inhibition of EPHA7 (unknown origin) at 10 uM after 120 mins P33 radiolabeled kinase activity assay
[2] = biological target: T1, Ephrin type-B receptor 1 (Homo sapiens) (UniProt P54762); assay: Inhibition of EPHB1 (unknown origin) at 10 uM after 120 mins P33 radiolabeled kinase activity assay
T1 sequence (whole entry): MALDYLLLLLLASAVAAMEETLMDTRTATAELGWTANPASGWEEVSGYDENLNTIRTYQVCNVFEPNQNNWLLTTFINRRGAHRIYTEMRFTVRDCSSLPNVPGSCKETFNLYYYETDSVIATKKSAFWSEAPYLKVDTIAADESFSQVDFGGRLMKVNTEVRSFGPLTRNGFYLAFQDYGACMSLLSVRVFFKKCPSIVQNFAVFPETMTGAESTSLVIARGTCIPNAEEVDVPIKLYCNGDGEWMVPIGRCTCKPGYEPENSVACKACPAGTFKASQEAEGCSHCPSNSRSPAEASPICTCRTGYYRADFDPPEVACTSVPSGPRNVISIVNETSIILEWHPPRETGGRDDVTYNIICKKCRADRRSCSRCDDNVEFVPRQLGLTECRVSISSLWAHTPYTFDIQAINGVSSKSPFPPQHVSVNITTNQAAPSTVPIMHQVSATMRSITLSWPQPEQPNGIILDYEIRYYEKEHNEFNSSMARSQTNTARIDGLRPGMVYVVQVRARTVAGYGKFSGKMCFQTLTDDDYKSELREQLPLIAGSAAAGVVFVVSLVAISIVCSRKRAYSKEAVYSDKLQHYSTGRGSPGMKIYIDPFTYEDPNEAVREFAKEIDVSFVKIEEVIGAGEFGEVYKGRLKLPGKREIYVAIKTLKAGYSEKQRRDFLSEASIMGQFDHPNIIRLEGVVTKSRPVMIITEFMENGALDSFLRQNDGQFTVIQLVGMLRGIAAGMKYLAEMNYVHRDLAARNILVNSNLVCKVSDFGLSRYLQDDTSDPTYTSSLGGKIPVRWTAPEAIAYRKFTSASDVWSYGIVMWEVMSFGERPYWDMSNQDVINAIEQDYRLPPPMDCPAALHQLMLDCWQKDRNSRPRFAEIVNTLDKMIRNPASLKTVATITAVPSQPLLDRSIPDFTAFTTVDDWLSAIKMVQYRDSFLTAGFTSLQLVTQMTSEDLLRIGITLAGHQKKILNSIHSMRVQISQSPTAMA

[3] = biological target: T2, Serine/threonine-protein kinase LATS2 (Homo sapiens) (UniProt Q9NRM7); assay: Inhibition of LATS2 (unknown origin) at 10 uM after 120 mins P33 radiolabeled kinase activity assay
T2 sequence (whole entry): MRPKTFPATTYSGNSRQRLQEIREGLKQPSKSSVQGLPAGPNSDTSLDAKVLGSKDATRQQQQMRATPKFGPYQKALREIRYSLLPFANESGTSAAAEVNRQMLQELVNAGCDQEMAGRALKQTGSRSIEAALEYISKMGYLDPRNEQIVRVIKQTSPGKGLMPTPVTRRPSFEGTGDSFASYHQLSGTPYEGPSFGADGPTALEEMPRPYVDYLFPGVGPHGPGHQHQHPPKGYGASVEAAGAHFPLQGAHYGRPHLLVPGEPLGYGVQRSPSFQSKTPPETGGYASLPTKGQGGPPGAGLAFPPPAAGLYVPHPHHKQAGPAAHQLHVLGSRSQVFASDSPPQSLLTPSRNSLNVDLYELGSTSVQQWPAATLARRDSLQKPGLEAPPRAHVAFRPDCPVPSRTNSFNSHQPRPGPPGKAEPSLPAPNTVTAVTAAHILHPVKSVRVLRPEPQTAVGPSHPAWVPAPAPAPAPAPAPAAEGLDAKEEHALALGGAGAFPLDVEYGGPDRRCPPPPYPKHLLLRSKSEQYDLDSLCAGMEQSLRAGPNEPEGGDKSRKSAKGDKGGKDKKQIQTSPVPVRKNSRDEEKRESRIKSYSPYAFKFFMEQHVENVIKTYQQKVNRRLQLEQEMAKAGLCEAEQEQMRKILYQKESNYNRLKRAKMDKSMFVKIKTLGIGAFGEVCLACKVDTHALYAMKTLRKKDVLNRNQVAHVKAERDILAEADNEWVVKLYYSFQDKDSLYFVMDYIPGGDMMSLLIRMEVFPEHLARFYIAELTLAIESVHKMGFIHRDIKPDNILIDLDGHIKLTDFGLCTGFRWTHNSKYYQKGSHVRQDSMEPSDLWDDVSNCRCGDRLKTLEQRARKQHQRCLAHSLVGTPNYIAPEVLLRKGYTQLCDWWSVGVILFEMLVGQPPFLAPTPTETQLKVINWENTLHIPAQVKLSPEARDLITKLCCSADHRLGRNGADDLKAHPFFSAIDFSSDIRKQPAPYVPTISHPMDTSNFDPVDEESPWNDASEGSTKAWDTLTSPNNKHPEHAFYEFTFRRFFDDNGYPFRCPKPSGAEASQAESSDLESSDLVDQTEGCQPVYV

[4] = biological target: Calcium/calmodulin-dependent protein kinase type 1B (Homo sapiens) (UniProt Q6P2M8); assay: Inhibition of CAMK1beta (unknown origin) at 10 uM after 120 mins P33 radiolabeled kinase activity assay
Calcium/calmodulin-dependent protein kinase type 1B (Homo sapiens), sequence (Q6P2M8 whole entry): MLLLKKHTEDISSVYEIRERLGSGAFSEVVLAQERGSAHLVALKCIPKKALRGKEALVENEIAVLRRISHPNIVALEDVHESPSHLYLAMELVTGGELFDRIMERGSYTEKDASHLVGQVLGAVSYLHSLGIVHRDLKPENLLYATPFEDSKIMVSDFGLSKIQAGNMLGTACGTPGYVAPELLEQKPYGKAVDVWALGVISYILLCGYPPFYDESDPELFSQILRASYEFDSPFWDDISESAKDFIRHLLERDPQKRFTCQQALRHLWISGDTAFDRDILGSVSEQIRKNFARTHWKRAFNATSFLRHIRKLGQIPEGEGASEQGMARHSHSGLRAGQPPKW

[5] = biological target: Cyclin-dependent kinase 2/cyclin A (Homo sapiens) (UniProt P24941+P20248+P78396); assay: Inhibition of CDK2/cyclin A (unknown origin) at 10 uM after 120 mins P33 radiolabeled kinase activity assay; type: protein-complex assay
[6] = biological target: CDK2/Cyclin A1 (Homo sapiens) (UniProt P24941+P78396); assay: Inhibition of CDK2/Cyclin A1 (unknown origin) at 10 uM after 120 mins P33 radiolabeled kinase activity assay; type: protein-complex assay
[7] = biological target: Serine/threonine-protein kinase PAK 4 (Homo sapiens) (UniProt O96013); assay: Inhibition of PAK4 (unknown origin) at 10 uM after 120 mins P33 radiolabeled kinase activity assay
Serine/threonine-protein kinase PAK 4 (Homo sapiens), sequence (O96013 whole entry, looked up): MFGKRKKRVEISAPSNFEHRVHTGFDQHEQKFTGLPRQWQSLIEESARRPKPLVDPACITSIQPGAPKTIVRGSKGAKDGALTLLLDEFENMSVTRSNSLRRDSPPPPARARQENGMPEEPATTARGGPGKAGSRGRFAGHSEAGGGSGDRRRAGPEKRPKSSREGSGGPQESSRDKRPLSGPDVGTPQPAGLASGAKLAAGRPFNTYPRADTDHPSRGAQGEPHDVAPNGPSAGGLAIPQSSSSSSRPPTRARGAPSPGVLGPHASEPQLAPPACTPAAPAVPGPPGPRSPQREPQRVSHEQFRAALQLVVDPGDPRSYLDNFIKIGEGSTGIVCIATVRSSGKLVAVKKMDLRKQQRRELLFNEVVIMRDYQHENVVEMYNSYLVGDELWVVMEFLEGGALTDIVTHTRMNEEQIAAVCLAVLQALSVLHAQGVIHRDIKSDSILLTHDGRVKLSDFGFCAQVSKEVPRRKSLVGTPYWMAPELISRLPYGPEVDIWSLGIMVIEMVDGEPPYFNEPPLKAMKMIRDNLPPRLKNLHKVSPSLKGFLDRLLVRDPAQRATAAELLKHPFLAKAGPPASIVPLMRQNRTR

[8] = biological target: Dual specificity tyrosine-phosphorylation-regulated kinase 1B (Homo sapiens) (UniProt Q9Y463); assay: Inhibition of DYRK1B (unknown origin) at 10 uM after 120 mins P33 radiolabeled kinase activity assay
Dual specificity tyrosine-phosphorylation-regulated kinase 1B (Homo sapiens), sequence (Q9Y463 whole entry, looked up): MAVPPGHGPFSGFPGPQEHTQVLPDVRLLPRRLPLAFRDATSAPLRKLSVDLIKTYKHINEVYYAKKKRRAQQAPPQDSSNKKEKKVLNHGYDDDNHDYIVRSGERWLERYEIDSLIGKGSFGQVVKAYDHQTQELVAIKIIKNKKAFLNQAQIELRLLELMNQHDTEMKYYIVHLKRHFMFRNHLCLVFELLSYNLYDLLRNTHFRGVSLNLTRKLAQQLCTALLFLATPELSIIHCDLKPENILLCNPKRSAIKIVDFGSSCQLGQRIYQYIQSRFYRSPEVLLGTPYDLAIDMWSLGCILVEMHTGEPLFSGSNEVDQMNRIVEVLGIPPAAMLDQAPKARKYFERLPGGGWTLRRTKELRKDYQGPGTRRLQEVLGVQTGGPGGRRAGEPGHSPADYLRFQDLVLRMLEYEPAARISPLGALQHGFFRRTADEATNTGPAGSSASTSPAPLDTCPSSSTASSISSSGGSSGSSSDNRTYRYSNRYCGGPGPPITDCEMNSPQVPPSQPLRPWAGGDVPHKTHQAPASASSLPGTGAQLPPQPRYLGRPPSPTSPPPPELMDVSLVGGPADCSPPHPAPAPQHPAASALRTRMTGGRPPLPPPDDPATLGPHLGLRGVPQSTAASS

[9] = biological target: STE20-like serine/threonine-protein kinase (Homo sapiens) (UniProt Q9H2G2); assay: Inhibition of SLK (unknown origin) at 10 uM after 120 mins P33 radiolabeled kinase activity assay
[10] = biological target: Tyrosine-protein kinase FRK (Homo sapiens) (UniProt P42685); assay: Inhibition of FRK (unknown origin) at 10 uM after 120 mins P33 radiolabeled kinase activity assay
Tyrosine-protein kinase FRK (Homo sapiens), sequence (P42685 whole entry): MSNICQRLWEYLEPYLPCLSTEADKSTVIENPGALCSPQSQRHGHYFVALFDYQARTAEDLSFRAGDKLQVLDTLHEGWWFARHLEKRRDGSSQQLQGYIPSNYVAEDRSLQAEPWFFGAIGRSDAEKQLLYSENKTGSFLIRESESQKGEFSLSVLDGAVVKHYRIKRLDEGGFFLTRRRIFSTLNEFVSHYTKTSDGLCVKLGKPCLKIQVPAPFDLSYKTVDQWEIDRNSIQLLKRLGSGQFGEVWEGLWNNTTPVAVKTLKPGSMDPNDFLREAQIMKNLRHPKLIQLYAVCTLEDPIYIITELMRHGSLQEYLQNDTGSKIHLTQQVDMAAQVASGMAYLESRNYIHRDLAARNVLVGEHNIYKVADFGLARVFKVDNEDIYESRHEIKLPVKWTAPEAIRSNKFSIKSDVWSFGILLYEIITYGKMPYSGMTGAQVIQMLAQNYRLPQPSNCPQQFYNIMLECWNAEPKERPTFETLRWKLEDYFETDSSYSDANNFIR

[11] = biological target: Vascular endothelial growth factor receptor 2 (Homo sapiens) (UniProt P35968); assay: Inhibition of KDR (unknown origin) at 10 uM after 120 mins P33 radiolabeled kinase activity assay
Vascular endothelial growth factor receptor 2 (Homo sapiens), sequence (P35968 whole entry): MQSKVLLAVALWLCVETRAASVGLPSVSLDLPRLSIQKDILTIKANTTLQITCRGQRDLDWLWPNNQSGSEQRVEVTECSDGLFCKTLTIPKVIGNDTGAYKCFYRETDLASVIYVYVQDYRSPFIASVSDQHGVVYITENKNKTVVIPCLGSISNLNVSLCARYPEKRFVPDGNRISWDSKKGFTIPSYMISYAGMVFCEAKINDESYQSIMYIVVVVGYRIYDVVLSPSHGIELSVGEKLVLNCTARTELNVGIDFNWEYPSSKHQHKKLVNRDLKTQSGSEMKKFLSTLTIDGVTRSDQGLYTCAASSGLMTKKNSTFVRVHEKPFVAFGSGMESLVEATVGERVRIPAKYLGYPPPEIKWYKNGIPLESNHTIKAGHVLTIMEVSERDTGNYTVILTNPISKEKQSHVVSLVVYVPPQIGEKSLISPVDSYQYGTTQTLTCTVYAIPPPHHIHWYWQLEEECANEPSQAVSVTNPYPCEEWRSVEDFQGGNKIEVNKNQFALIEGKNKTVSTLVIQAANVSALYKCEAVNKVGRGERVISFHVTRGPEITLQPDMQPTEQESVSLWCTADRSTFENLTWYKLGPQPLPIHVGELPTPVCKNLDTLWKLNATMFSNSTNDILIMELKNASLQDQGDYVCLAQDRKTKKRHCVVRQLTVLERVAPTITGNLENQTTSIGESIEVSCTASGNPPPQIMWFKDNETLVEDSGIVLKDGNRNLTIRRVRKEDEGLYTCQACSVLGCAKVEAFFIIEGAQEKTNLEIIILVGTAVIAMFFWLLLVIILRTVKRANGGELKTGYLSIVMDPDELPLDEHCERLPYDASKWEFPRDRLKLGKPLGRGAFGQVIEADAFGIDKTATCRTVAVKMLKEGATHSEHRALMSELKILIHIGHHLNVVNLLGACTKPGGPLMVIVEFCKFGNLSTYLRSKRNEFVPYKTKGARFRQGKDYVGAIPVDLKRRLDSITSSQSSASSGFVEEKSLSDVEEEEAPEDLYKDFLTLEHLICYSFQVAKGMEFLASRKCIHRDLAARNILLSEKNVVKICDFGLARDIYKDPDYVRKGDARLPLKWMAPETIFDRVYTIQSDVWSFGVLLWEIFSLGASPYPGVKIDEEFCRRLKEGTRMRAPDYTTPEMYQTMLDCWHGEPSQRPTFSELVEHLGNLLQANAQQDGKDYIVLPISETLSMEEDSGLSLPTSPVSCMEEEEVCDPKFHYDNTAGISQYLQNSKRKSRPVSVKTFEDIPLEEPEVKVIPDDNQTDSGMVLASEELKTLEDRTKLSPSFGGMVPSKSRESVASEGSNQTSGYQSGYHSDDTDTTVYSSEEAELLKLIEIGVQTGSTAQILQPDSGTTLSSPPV

[12] = species on record: Homo sapiens; assay: Inhibition of PKG1alpha (unknown origin) at 10 uM after 120 mins P33 radiolabeled kinase activity assay
[13] = biological target: Dual specificity protein kinase CLK4 (Homo sapiens) (UniProt Q9HAZ1); assay: Inhibition of CLK4 (unknown origin) at 10 uM after 120 mins P33 radiolabeled kinase activity assay
Dual specificity protein kinase CLK4 (Homo sapiens), sequence (Q9HAZ1 whole entry, looked up): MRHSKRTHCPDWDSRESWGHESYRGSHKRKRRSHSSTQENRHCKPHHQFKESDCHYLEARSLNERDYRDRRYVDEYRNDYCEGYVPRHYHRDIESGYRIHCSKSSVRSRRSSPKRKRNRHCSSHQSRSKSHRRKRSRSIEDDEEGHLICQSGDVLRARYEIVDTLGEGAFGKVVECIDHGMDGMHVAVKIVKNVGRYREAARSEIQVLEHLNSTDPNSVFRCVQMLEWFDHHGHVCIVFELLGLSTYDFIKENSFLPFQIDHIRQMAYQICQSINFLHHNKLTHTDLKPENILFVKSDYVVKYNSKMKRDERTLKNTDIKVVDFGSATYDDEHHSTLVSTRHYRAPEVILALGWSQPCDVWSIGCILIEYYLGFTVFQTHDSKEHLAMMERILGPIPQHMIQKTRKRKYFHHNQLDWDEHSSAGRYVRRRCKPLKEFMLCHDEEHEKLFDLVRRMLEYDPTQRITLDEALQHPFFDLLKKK

Ephrin type-A receptor 7 (Homo sapiens), sequence (Q15375 28-998 limits assumed): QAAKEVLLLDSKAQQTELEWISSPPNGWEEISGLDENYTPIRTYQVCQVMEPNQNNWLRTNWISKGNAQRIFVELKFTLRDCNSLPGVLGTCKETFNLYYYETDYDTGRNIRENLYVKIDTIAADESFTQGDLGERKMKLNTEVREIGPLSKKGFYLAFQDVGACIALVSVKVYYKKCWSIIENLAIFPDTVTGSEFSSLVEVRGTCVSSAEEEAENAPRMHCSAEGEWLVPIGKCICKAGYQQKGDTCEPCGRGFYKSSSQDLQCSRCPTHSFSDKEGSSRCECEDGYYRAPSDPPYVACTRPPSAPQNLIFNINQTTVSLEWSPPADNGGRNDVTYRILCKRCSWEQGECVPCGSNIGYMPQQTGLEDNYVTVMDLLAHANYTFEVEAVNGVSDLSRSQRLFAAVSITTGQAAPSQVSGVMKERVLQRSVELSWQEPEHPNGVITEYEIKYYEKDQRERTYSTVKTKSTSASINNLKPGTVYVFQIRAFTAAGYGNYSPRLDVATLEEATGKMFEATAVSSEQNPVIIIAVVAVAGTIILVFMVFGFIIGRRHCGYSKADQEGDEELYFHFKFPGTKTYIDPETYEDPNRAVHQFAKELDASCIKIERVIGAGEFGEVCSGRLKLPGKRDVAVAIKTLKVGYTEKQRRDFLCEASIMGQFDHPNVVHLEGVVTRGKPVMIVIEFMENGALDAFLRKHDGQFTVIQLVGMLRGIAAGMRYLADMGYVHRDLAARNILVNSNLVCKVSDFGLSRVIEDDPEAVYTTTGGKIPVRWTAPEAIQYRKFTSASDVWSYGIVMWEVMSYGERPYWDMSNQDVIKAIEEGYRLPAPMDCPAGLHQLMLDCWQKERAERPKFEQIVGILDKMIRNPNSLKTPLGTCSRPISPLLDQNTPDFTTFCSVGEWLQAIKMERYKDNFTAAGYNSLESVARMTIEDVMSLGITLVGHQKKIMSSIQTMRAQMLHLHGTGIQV

inhibition [1] [%] | inhibition [2] [%] | inhibition [3] [%] | inhibition [4] [%] | inhibition [5] [%] | inhibition [6] [%] | inhibition [7] [%] | inhibition [8] [%] | inhibition [9] [%] | inhibition [10] [%] | inhibition [11] [%] | inhibition [12] [%] | inhibition [13] [%] | Compound
18.8 | 12.3 | 2.32 | 2.47 | -6.73 | 18.1 | 5.75 | 11.4 | 31.2 | 54.5 | 7.13 | -4.79 | 41.3 | COCCNC(=O)c1ccc2c(c1)nc(-c1cnc(-c3ccc(Cl)cc3)[nH]1)n2CCOC
47.5 | 78.7 | 21.9 | 46.8 | 62.9 | 43.5 | 4.24 | 27.5 | 86 | 96.9 | 96.3 | 9.43 | 36.7 | CS(=O)(=O)c1cccc(Nc2nccc(-c3sc(N4CCOCC4)nc3-c3cccc(NS(=O)(=O)c4c(F)cccc4F)c3)n2)c1
96.5 | 93.2 | 50.2 | 9.84 | 6.27 | 51.4 | 5.19 | 14.5 | 73 | 99 | 98.6 | 7.43 | 36.5 | CC(C)(C)c1cc(NC(=O)Nc2ccc(Oc3ccncc3)cc2)no1
